Measured values taken from article PMC8675330 (Frontiers in Pharmacology, 2021).
Structures can show the parent of a compound that is named as a salt. Where two headings read alike, the source gives them in different places. Marks after values point to notes of the source that are not given here. Values belong to the compound of their own block, whether it stands above or below them.

Experiments:
[1] = Solubility of escitalopram and paroxetine in liquid lipids; type: physicochemical; settings: 24 h stirring at 25°C, n = 3, mean ± SD; for solubility at 24 h: oil or lipid, thermodynamic from solid
Procedure: Briefly, 0.5 g of solid lipid Precirol® ATO 5 was melted in a controlled temperature water bath at 65°C. […] Regarding liquid lipids (oleic acid, Labrasol®, Labrafac™ PG, Lauroglycol™ 90, and Miglyol® 812 N), both drugs were dispersed in screw-capped tubes with the liquid compounds (0.5 ml each) and kept under mechanical stirring for 24 h at 25°C. […] An aliquot of the supernatant was diluted with the mobile phase, filtered through a 0.22-µm membrane, and analyzed. […] The HPLC-DAD apparatus and data acquisition were controlled by using Lab Solutions Software (Shimadzu Corporation, Tokyo, Japan). […] The mobile phase was composed of 20 mM phosphate buffer (pH 3.8 adjusted with orthophosphoric acid) and acetonitrile (80:20, v/v) pumped at a flow rate of 1.0 ml/min.

[2] = In vivo pharmacokinetics in plasma, brain and lung after IV, IN and IN + BorNLC co-administration; design: species or system CD-1 mice; settings: for Cmax / Tmax / Kp / AUC(0-t): CD-1, mouse
Procedure: Healthy adult CD-1 mice (25–30 g) were acquired from Charles River Laboratories (L’Arbresle, France) and accommodated in a relative humidity of 55 ± 5%, a controlled temperature of 20 ± 2°C, and reversed 12 h light–dark cycles. The studies were always performed in the dark phase (active phase between 08h00 and 20h00). A period of at least 7 days was considered for the animals to become familiarized with the environment. Animals had ad libitum access to food (4RF21, Mucedola®, Italy) and tap water during the entire experiment period.
Before treatment, animals were anesthetized by intraperitoneal administration of a mixture of ketamine (100 mg/kg) and xylazine (10 mg/kg) to keep them immobile during IN or IV administration. Animals were randomly divided into 3 groups (n = 28) and subdivided into 7 time-points (n = 4). […] Briefly, Pluronic F-127 (18%, w/v) and Carbopol 974P (0.2%, w/v) were added to cold water, since the first guarantees the thermoreversible characteristic of the nasal gel ([Swamy and Abbas, 2012]) and the second increases the bioadhesive properties of the gel, thus increasing the residence time in the nasal cavity and improving the central delivery of antidepressant drugs. […] Anesthetized animals were instilled with 14–25 µl (2.38 mg/kg) of the gel with a polyurethane tube (24G x 19 mm) attached to a microliter syringe. Formulation delivery was performed into one of the nostrils, where the tube was inserted about 10 mm deep.
Animals were sacrificed by cervical dislocation and decapitation at 5, 15, 30, 60, 120, 240, and 480 min after administration, and heparinized tubes were used for blood collection. Blood samples were centrifuged at 1,252 g for 10 min at 4°C, and plasma supernatants were analyzed by HPLC-DAD. The mice brain and lungs were quickly removed and gently cleaned with a sterile gauze humidified with saline to remove adherent surface blood. Then, these organs were weighed and homogenized in NaCl 0.9% (3 ml/g of tissue) using a tissue homogenizer with a Teflon® pestle from Thomas Scientific (Swedesboro, NJ, United States).
Briefly, 300 μl of methanol were added to 200 μl of plasma, 200 μl of lung homogenate, or 400 μl of brain homogenate for protein precipitation. After two extractions with 700 μl of n-hexane:alcohol isoamyl (98:2, v/v) mixture, organic phases were evaporated. Last, following reconstitution with 100 μl of a mixture of 20 mM phosphate buffer pH 3.8 and acetonitrile (70:30, v/v), the plasma and lung homogenate samples were transferred to a 0.22-μm Costar® Spin-X® centrifugal filter (Corning, Inc., NY, United States) and centrifuged at 12,100 g for 3 min. All final samples were injected (20 µl) into the HPLC-DAD system, in accordance with the analytical conditions described in section 2.2.1. The detection wavelength to quantify the IS was set at 290 nm.
The remaining pharmacokinetic parameters were estimated by non-compartmental analysis using WinNonlin® version 6.4 software (Certara, Princeton, NJ). Plasma and tissue concentrations below the lower limit of quantification (LLOQ) of the analytical method were considered zero for the pharmacokinetic data analysis.
For both drugs and in all matrices, the area under the concentration–time curve from time zero (AUC) to the time of the last measurable drug concentration (AUCt) was calculated by the linear trapezoidal rule.
To evaluate drug distribution into the brain and lungs after administration, the ratios were determined based on the quotient AUCt(tissue)/AUCt(plasma). The drug targeting efficiency (DTE) was calculated following Eq. 6: DTE(%)=(AUCt(brain)/AUCt(plasma))IN/(AUCt(brain)/AUCt(plasma))IV×100 (6)
Finally, to evaluate the direct drug passage from the nose to the brain, the direct transport percentage (DTP) was determined applying Eq. 7: DTP(%)=AUCt(brain) IN−[(AUCt(brain) IV/AUCt(plasma) IV)×AUCt(plasma) IN]/AUCbrain IN×100 (7)

[3] = design: method as in Kreilgaard et al., 2008; settings: single subcutaneous injection, three doses (escitalopram 0.240-3.90 mg/kg; paroxetine 0.270-4.40 mg/kg); ref Kreilgaard et al., 2008; cited from earlier work
P-glycoprotein (P-gp) = settings: cited from earlier work
[4] = significant first-pass metabolism; no reference given; cited from earlier work
[5] = Lauroglycol 90 (liquid lipid), in Lauroglycol 90
[6] = oleic acid (liquid lipid), in oleic acid
[7] = brain, inhaled or intranasal, 2.38 mg/kg
[8] = lung, inhaled or intranasal, 2.38 mg/kg
[9] = plasma, inhaled or intranasal, 2.38 mg/kg
[10] = inhaled or intranasal, paroxetine, brain, IN free drug, 2.38 mg/kg
[11] = inhaled or intranasal, paroxetine, lung, IN free drug, 2.38 mg/kg
[12] = inhaled or intranasal, paroxetine, plasma, IN free drug, 2.38 mg/kg
[13] = paroxetine, brain, IV free drug, 2.38 mg/kg
[14] = paroxetine, lung, IV free drug, 2.38 mg/kg
[15] = paroxetine, plasma, IV free drug, 2.38 mg/kg
[16] = paroxetine, IN free drug vs IV, 2.38 mg/kg

solubility at 24 h ([1]; Labrafac PG (liquid lipid), in Labrafac PG, n.d. = not detected): 1340 ± 1120 µg/mL
solubility at 24 h ([1]; Labrasol (liquid lipid), in Labrasol): 14700 ± 14000 µg/mL
solubility at 24 h [1, 5]: 6910 ± 130 µg/mL
solubility at 24 h [1, 6]: 840 ± 120 µg/mL
Cmax [2, 7]: 133 ng/g
Tmax [2, 7]: 60 min
Cmax ([2]; brain, iv, 2.38 mg/kg): 511 ng/g
Tmax ([2]; brain, iv, 2.38 mg/kg): 15 min
Kp ([2]; brain/plasma, iv, 2.38 mg/kg, read-out: AUCtbrain/AUCtplasma): 0.871
Kp ([2]; brain/plasma, other: intranasal (IN), 2.38 mg/kg, read-out: AUCtbrain/AUCtplasma): 0.86
Cmax [2, 8]: 2310 ng/g
Tmax [2, 8]: 30 min
Cmax ([2]; lung, iv, 2.38 mg/kg): 1020 ng/g
Tmax ([2]; lung, iv, 2.38 mg/kg): 60 min
Kp ([2]; lung/plasma, iv, 2.38 mg/kg, read-out: AUCtlung/AUCtplasma): 2.45
Kp ([2]; lung/plasma, other: intranasal (IN), 2.38 mg/kg, read-out: AUCtlung/AUCtplasma): 10.6
AUC(0-t) [2, 9]: 507 ng·h/mL
Cmax [2, 9]: 550 ng/mL
Tmax [2, 9]: 5 min
AUC(0-t) ([2]; plasma, iv, 2.38 mg/kg): 1150 ng·h/mL
Cmax ([2]; plasma, iv, 2.38 mg/kg): 482 ng/mL
Tmax ([2]; plasma, iv, 2.38 mg/kg): 5 min
AUCt ([2]; escitalopram, brain, IN free drug, 2.38 mg/kg): 26.2 ^c µg.min/g
AUCt ([2]; escitalopram, brain, IV free drug, 2.38 mg/kg): 59.8 ^c µg.min/g
AUCt ([2]; escitalopram, lung, IN free drug, 2.38 mg/kg): 321 ^c µg.min/g
AUCt ([2]; escitalopram, lung, IN free drug, 2.38 mg/kg, listed as escitalopram): 168 µg·min/g
AUCt ([2]; escitalopram, lung, IV free drug, 2.38 mg/kg): 168 ^c µg.min/g
AUCt ([2]; escitalopram, lung, IV free drug, 2.38 mg/kg, listed as escitalopram): 321 µg·min/g
lung Cmax after free drug IN administration, times superior to BorNLC IN ([2]; escitalopram, lung, free IN vs BorNLC IN): 3.8 times
lung Cmax after free drug IN administration, times superior to IV ([2]; escitalopram, lung, free IN vs IV): 2.3 times
Structure (SMILES): CN(C)CCC[C@@]1(c2ccc(F)cc2)OCc2cc(C#N)ccc21 [Escitalopram, escitalopram oxalate]
tmax in the plasma [3]: 3.00 to 5.40 min

solubility at 24 h [1, 5]: 13800 ± 1260 µg/mL
solubility ([1]; in Labrasol): 24000 ± 30500 µg/mL
solubility at 24 h [1, 6]: 1070 ± 580 µg/mL
Kp ([2]; brain/plasma, iv, 2.38 mg/kg, paroxetine, IV free drug, 2.38 mg/kg, read-out: AUCtbrain/AUCtplasma): 0.35
Kp ([2]; brain/plasma, other: intranasal (IN), 2.38 mg/kg, paroxetine, IN free drug, 2.38 mg/kg, read-out: AUCtbrain/AUCtplasma): 0.82
Cmax [2, 10]: 283 ng/g
Tmax [2, 10]: 120 min
Cmax [2, 11]: 2820 ng/g
Tmax [2, 11]: 60 min
AUC(0-t) [2, 12]: 1390 ng·h/mL
Cmax [2, 12]: 696 ng/mL
Kp ([2]; lung/plasma, iv, 2.38 mg/kg, paroxetine, IV free drug, 2.38 mg/kg, read-out: AUCtlung/AUCtplasma): 2.63
Kp ([2]; lung/plasma, other: intranasal, 2.38 mg/kg, paroxetine, IN free drug, 2.38 mg/kg, read-out: AUCtlung/AUCtplasma): 8.4
Tmax [2, 9]: 5 min
Tmax ([2]; plasma, iv, 2.38 mg/kg): 5 min
Cmax [2, 13]: 233 ng/g
Tmax [2, 13]: 120 min
Cmax [2, 14]: 1010 ng/g
Tmax [2, 14]: 30 min
AUC(0-t) [2, 15]: 1630 ng·h/mL
Cmax [2, 15]: 820 ng/mL
DTE (drug targeting efficiency) [2, 16]: 232%
DTP (direct transport percentage) [2, 16]: 56.9%
AUCtbrain/AUCtplasma ([2]; paroxetine, IN free drug, 2.38 mg/kg): 0.821
AUCtbrain/AUCtplasma ([2]; paroxetine, IV free drug, 2.38 mg/kg): 0.354
AUCt ([2]; paroxetine, brain, IN free drug, 2.38 mg/kg): 68.2 ^c µg min/g
higher brain exposure (given by AUCt) than that of IV injection ([2]; paroxetine, brain, IN vs IV): 49%
AUCt [2, 13]: 34.6 ^c µg min/g
AUCt ([2]; paroxetine, lung, IN free drug, 2.38 mg/kg): 699 ^c µg min/g
AUCt [2, 14]: 257 ^c µg min/g
Structure (SMILES): Fc1ccc([C@@H]2CCNC[C@H]2COc2ccc3c(c2)OCO3)cc1 [Paroxetine, Paroxetine hydrochloride]
P-gp IC50 relative to therapeutic plasma concentrations (P-glycoprotein (P-gp); IC50 higher than therapeutic plasma concentrations, ref Hiemke et al., 2018): about 150 fold
P-gp inhibition IC50 (P-glycoprotein (P-gp); in vitro, ref Feng et al., 2008): 10 µg/mL
oral bioavailability [4]: 30 to 60%
tmax in the plasma [3]: 4.80 to 5.40 min
